The record followed here is patent US8088806B2 (Achillion Pharmaceuticals, Inc., priority 2005, dated 2012).

A value given as a limit tells only on which side of the number the result lay.

This assay deals with HCV replicon. The assay can be described thus: Replicon based assay of HCV replication inhibition (NPT ELISA). The class given is cell-based, Hepatitis C virus. The note with it: Hepatitis C virus, Huh-7, 72 h, Table III; Huh-7 HCV replicon-containing cells, three days; read-out: Activity. The method in brief: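 NPT (neomycin phosphotransferase) content, proportional to replicon replication, quantified by capture ELISA on day four. Before that, replicon-bearing Huh-7 cells in G418-free screening medium were exposed three days at 37° C to compound, typically six doses from 10 to 0.03 micromolar, with equal DMSO across wells.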
As to `CCCCCCCCN(C)c1ccc(Nc2nc(Cc3ccc(F)cc3)cs2)cc1` [compound 632, N^1-(4-(4-fluorobenzyl)thiazol-2-yl)-N^4-methyl-N^4-octylbenzene-1,4-diamine], the EC50 is more than 10000 nM.
Turning to `CCCCCOc1ccc(Nc2nc(Cc3ccc(Cl)cc3)cs2)cc1C(F)(F)F` [compound 633, 4-(4-chlorobenzyl)-N-(3-(trifluoromethyl)-4-(pentyloxy)phenyl)thiazol-2-amine], the EC50 lay within 1000 to 10000 nM.
The value for `CCCCCCCCOc1ccc(Nc2nc(Cc3ccc(Cl)cc3)cs2)cc1` [compound 634, 4-(4-chlorobenzyl)-N-(4-(octyioxy)phenyl)thiazol-2-amine] was more than 10000 nM; that for `CCCCCCCCOc1ccc(Nc2nc(Cc3ccc(Cl)cc3)cs2)cc1C(F)(F)F` [compound 635, 4-(4-chlorobenzyl)-N-(3-(trifluoromethyl)-4-(octyloxy)phenyl)thiazol-2-amine] was 1000 to 10000 nM.
Consider `CCCCCOc1ccc(Nc2nc(Cc3ccc(Cl)cc3)cs2)cc1F` [compound 636, 4-(4-chlorobenzyl)-N-(3-fluoro-4-(pentyloxy)phenyl)thiazol-2-amine], for which the EC50 is more than 10000 nM.
The value for `CCCCCCCCN(C)c1ccc(Nc2nc(Cc3ccc(Cl)cc3)cs2)cc1` [compound 638, N^1-(4-(4-chlorobenzyl)thiazol-2-yl)-N^4-methyl-N^4-octylbenzene-1,4-diamine] was 1000 to 10000 nM.
The value for `CCCCCOc1ccc(Nc2nc(Cc3ccc(OC)cc3)cs2)cc1C(F)(F)F` [compound 639, 4-(4-methoxybenzyl)-N-(3-(trifluoromethyl)-4-(pentyloxy)phenyl)thiazol-2-amine] was 1000 to 10000 nM.
The value for `CCCCCCCCOc1ccc(Nc2nc(Cc3ccc(OC)cc3)cs2)cc1` [compound 640, 4-(4-methoxybenzyl)-N-(4-(octyloxy)phenyl)thiazol-2-amine] was more than 10000 nM; that for `CCCCCCCCOc1ccc(Nc2nc(Cc3ccc(OC)cc3)cs2)cc1C(F)(F)F` [compound 641, 4-(4-methoxybenzyl)-N-(3-(trifluoromethyl)-4-(octyloxy)phenyl)thiazol-2-amine] was less than 1000 nM.
In the case of `CCCCCOc1ccc(Nc2nc(Cc3ccc(OC)cc3)cs2)cc1F` [compound 642, 4-(4-methoxybenzyl)-N-(3-fluoro-4-(pentyloxy)phenyl)thiazol-2-amine], the EC50 was more than 10000 nM.
The value for `CCCCCN(C)c1ccc(Nc2nc(Cc3ccc(OC)cc3)cs2)cc1C(F)(F)F` [compound 643, N^4-(4-(4-methoxybenzyl)thiazol-2-yl)-2-(trifluoromethyl)-N^1-methyl-N^1-pentylbenzene-1,4-diamine] was more than 10000 nM; that for `CCCCCCCCN(C)c1ccc(Nc2nc(Cc3ccc(OC)cc3)cs2)cc1` [compound 644, N^1-(4-(4-methoxybenzyl)thiazol-2-yl)-N^4-methyl-N^4-octylbenzene-1,4-diamine] was more than 10000 nM; that for `CCC(CC)Oc1ccc(Nc2nc(-c3cccnc3)cs2)cc1C(F)(F)F` [compound 645, N-(3-(trifluoromethyl)-4-(pentan-3-yloxy)phenyl)-4-(pyridin-3-yl)thiazol-2-amine] was less than 1000 nM.
The value for `CCCCCOc1ccc(Nc2nc(-c3cncc(C(=O)O)c3)cs2)cc1C(F)(F)F` [compound 646, 5-(2-(3-(trifluoromethyl)-4-(pentyloxy)phenylamino)thiazol-4-yl)pyridine-3-carboxylic acid] was less than 1000 nM; that for `CCCCCOc1ccc(Nc2nc(-c3cncc(C(=O)N(C)C)c3)cs2)cc1C(F)(F)F` [compound 647, 5-(2-(3-(trifluoromethyl)-4-(pentyloxy)phenylamino)thiazol-4-yl)-N,N-dimethylpyridine-3-carboxamide] was less than 1000 nM; that for `CCCCCCCCOc1ccc(Nc2nc(-c3cncc(C(=O)O)c3)cs2)cc1` [compound 648, 5-(2-(4-(octyloxy)phenylamino)thiazol-4-yl)pyridine-3-carboxylic acid] was 1000 to 10000 nM.
The value for `CCCCCCCCOc1ccc(Nc2nc(-c3cncc(C(=O)N(C)C)c3)cs2)cc1` [compound 649, 5-(2-(4-(octyloxy)phenylamino)thiazol-4-yl)-N,N-dimethylpyridine-3-carboxamide] was 1000 to 10000 nM; that for `CCCCCCCCOc1ccc(Nc2nc(O)cs2)cc1C(F)(F)F` [compound 650, 2-(3-(trifluoromethyl)-4-(octyloxy)phenylamino)thiazol-4-ol] was 1000 to 10000 nM; that for `CCCCCCCCN(C)c1ccc(Nc2nc(O)cs2)cc1C(F)(F)F` [compound 651] was 1000 to 10000 nM.
In the case of `Oc1csc(Nc2ccc(OCCCC3CCCC3)c(C(F)(F)F)c2)n1` [compound 652], the EC50 fell in the range of 1000 to 10000 nM.
The value for `CCCCCCCCOc1ccc(Nc2nc(-c3cncc(C(N)=O)c3)cs2)cc1` [compound 653, 5-(2-(4-(octyloxy)phenylamino)thiazol 4-yl)pyridine-3-carboxamide] was less than 1000 nM; that for `CCCCCCCCOc1ccc(Nc2nc(-c3cncc(C#N)c3)cs2)cc1C(F)(F)F` [compound 654, 5-(2-(3-(trifluoromethyl)-4-(octyloxy)phenylamino)thiazol-4-yl)pyridine-3-carbonitrile] was less than 1000 nM.
The value for `CCCCCCCCOc1ccc(Nc2nc(-c3cncc(C#N)c3)cs2)cc1` [compound 655, 5-(2-(4-(octyloxy)phenylamino)thiazol-4-yl)pyridine-3-carbonitrile] was less than 1000 nM; that for `CCCCCCCCOc1ccc(Nc2nc(-c3cncc(OC)c3)cs2)cc1C(F)(F)F` [compound 656, N-(3-(trifluoromethyl)-4-(octyloxy)phenyl)-4-(5-methoxypyridin-3-yl)thiazol-2-amine] was 1000 to 10000 nM; that for `CCCCCCCCOc1ccc(Nc2nc(-c3cncc(OC)c3)cs2)cc1` [compound 657, 4-(5-methoxypyridin-3-yl)-N-(4-(octyloxy)phenyl)thiazol-2-amine] was 1000 to 10000 nM.
As for `FC(F)(F)c1cc(Nc2nc(-c3cccnc3)cs2)ccc1OCC1CCCCC1` [compound 658, N-(4-(cyclohexylmethoxy)-3-(trifluoromethyl)phenyl)-4-(pyridin-3-yl)thiazol-2-amine], the EC50 is less than 1000 nM.
Consider `CCCCCCCCOc1ccc(Nc2nc(-c3cnc(O)cc3C)cs2)cc1C(F)(F)F` [compound 659, 5-(2-(3-(trifluoromethyl)-4-(octyloxy)phenylamino)thiazol-4-yl)-4-methylpyridin-2-ol], for which the EC50 is less than 1000 nM.
The value for `CCCCCCCCOc1ccc(Nc2nc(-c3ccc4c(c3)COC4=O)cs2)cc1C(F)(F)F` [compound 660, 5-(2-(3-(trifluoromethyl)-4-(octyloxy)phenylamino)thiazol-4-yl)isobenzofuran-1(3H)-one] was less than 1000 nM; that for `CCCCCCCCOc1ccc(Nc2nc(-c3ccc(-n4ccnc4)cc3)cs2)cc1C(F)(F)F` [compound 661, 4-(4-(1H-imidazol-1-yl)phenyl)-N-(3-(trifluoromethyl)-4-(octyloxy)phenyl)thiazol-2-amine] was less than 1000 nM.
For `CCCCCCCCOc1ccc(Nc2nc(-c3cnc(OC)nc3)cs2)cc1C(F)(F)F` [compound 662, N-(3-(trifluoromethyl)-4-(octyloxy)phenyl)-4-(2-methoxypyrimidin-5-yl)thiazol-2-amine], the EC50 was less than 1000 nM.
The value for `CCCCCCCCOc1ccc(Nc2nc(-c3cncn3C)cs2)cc1C(F)(F)F` [compound 663, N-(3-(trifluoromethyl)-4-(octyloxy)phenyl)-4-(1-methyl-1H-imidazol-5-yl)thiazol-2-amine] was less than 1000 nM; that for `CCCCCCCCOc1ccc(Nc2nc(-c3cccc4nsnc34)cs2)cc1C(F)(F)F` [compound 664, 4-(benzo[c][1,2,5]thiadiazol-4-yl)-N-(3-(trifluoromethyl)-4-(octyloxy)phenyl)thiazol-2-amine] was less than 1000 nM.
With `CCCCCCCCOc1ccc(Nc2nc(-c3ccc4[nH]c(=O)oc(=O)c4c3)cs2)cc1C(F)(F)F` [compound 665, 6-(2-(3-(trifluoromethyl)-4-(octyloxy)phenylamino)thiazol-4-yl)-1H-benzo[d][1,3]oxazine-2,4-dione], the EC50 is less than 1000 nM.
The value for `CCCCCCCCOc1ccc(Nc2nc(-c3ccc(CCO)cc3)cs2)cc1C(F)(F)F` [compound 666, 2-(4-(2-(3-(trifluoromethyl)-4-(octyloxy)phenylamino)thiazol-4-yl)phenyl)ethanol] was less than 1000 nM; that for `CCCCCCCCOc1ccc(Nc2nc(-c3ccsc3C(N)=O)cs2)cc1C(F)(F)F` [compound 667, 3-(2-(3-(trifluoromethyl)-4-(octyloxy)phenylamino)thiazol-4-yl)thiophene-2-carboxamide] was less than 1000 nM; that for `CCCCCCCCOc1ccc(Nc2nc(-c3ccc(-c4csnn4)cc3)cs2)cc1C(F)(F)F` [compound 668, 4-(4-(1,2,3-thiadiazol-4-yl)phenyl)-N-(3-(trifluoromethyl)-4-(octyloxy)phenyl)thiazol-2-amine] was less than 1000 nM.
The value for `CCCCCCCCOc1ccc(Nc2nc(-c3ccc4c(c3)SCC(=O)N4)cs2)cc1C(F)(F)F` [compound 669, 7-(2-(3-(trifluoromethyl)-4-(octyloxy)phenylamino)thiazol-4-yl)-2H-benzo[b][1,4]thiazin-3(4H)-one] was less than 1000 nM.
The value for `CCCCCCCCOc1ccc(Nc2nc(-c3ccc(N)nn3)cs2)cc1C(F)(F)F` [compound 670, 6-(2-(3-(trifluoromethyl)-4-(octyloxy)phenylamino)thiazol-4-yl)pyridazin-3-amine] was less than 1000 nM.
With `CCCCCCCCOc1ccc(Nc2nc(-c3ccsc3C#N)cs2)cc1C(F)(F)F` [compound 671, 3-(2-(3-(trifluoromethyl)-4-(octyloxy)phenylamino)thiazol-4-yl)thiophene-2-carbonitrile], the EC50 was less than 1000 nM.
The value for `CCCCCCCCOc1ccc(Nc2nc(-c3cnc(Cl)c(C(=O)OC)c3)cs2)cc1C(F)(F)F` [compound 672, methyl 5-(2-(3-(trifluoromethyl)-4-(octyloxy)phenylamino)thiazol-4-yl)-2-chloropyridine-3-carboxylate] was less than 1000 nM.
